# Results: ChEMBL document CHEMBL3593199, “Guaianolides and a seco-Eudesmane from the Resinous Exudates of Cushion Bush (Leucophyta brownii) and Evaluation of Their Cytostatic and Anti-inflammatory Activity” (J Nat Prod, 2015)
# pIC50: −log10 of the molar value.
# Key:
# RAW264.7 [1] = assay: Anti-inflammatory activity in mouse RAW264.7 cells assessed as inhibition of LPS-induced thromboxane B2 production incubated for 48 hrs by ELISA method; format: functional, cell-based; details: RAW264.7, 48 h
# MCF7 = assay: Cytostatic activity against human MCF7 cells incubated for 6 days by alamar blue reagent based resazurin metabolism assay; format: functional, cell-based; details: MCF7, 144 h
# RAW264.7 [2] = assay: Anti-inflammatory activity in mouse RAW264.7 cells assessed as inhibition of LPS-induced prostaglandin E2 production incubated for 48 hrs by ELISA method; format: functional, cell-based; details: RAW264.7, 48 h
# HT-29 = assay: Cytostatic activity against human HT-29 cells incubated for 72 hrs by alamar blue reagent based resazurin metabolism assay; format: functional, cell-based; details: HT-29, 72 h
# RAW264.7 [3] = assay: Anti-inflammatory activity in mouse RAW264.7 cells assessed as inhibition of LPS-induced thromboxane B2 production at 10 uM incubated for 48 hrs by ELISA method; format: functional; details: RAW264.7, 48 h
# RAW264.7 [4] = assay: Anti-inflammatory activity in mouse RAW264.7 cells assessed as inhibition of LPS-induced prostaglandin E2 production at 10 uM incubated for 48 hrs by ELISA method; format: functional; details: RAW264.7, 48 h
Structure (SMILES),pIC50 (RAW264.7 [1]),pIC50 (MCF7),pIC50 (RAW264.7 [2]),pIC50 (HT-29),inhibition at 10 µM (RAW264.7 [3]),inhibition at 10 µM (RAW264.7 [4])
C=C1C(=O)O[C@@H]2C[C@H](C)[C@]34O[C@H]3C[C@@](C)(O)[C@@H]4C[C@H]12,4.93,4.92,5.52,4.73,,
C[C@]12CCC(=O)C=C1CC[C@@H]1[C@@H]2[C@@H](O)C[C@@]2(C)[C@H]1CC[C@]2(O)C(=O)CO [HYDROCORTISONE],,,,,42%,21%
C=C1C(=O)O[C@@H]2C[C@H](C)[C@]3(O)[C@@H](C[C@H]12)[C@](C)(OC(C)=O)C[C@@H]3O,4.46,4.57,4.98,4.53,,
C=C1C(=O)O[C@@H]2C[C@H](C)C3=CC[C@@](C)(O)[C@@H]3C[C@H]12,4.75,4.62,5.19,4.55,,
C=C1C(=O)O[C@@H]2C[C@H](C)C(CCC(C)=O)=CC[C@H]12 [TOMENTOSIN],4.80,4.58,5.14,4.25,,

# Further lines, with some results ahead:
pIC50 (RAW264.7 [1]),pIC50 (MCF7),pIC50 (RAW264.7 [2]),pIC50 (HT-29),Structure (SMILES),inhibition at 10 µM (RAW264.7 [3]),inhibition at 10 µM (RAW264.7 [4])
4.89,4.86,5.49,4.74,C=C1C(=O)O[C@@H]2CC(C)=C3CC[C@@](C)(O)[C@@H]3C[C@H]12,,
4.41,< 4.19,4.79,< 4.19,C=C1C(=O)O[C@@H]2C[C@H](C)[C@]34O[C@](C)(C[C@@H]3OC(C)=O)[C@@H]4C[C@H]12,,
5.59,5.10,5.46,5.32,C=C1C(=O)O[C@@H]2CC(C)=C3CC[C@@](C)(OC(C)=O)[C@@H]3C[C@H]12,,
4.43,,4.67,,C=C1C(=O)O[C@@H]2C[C@](C)(O)C3=CC[C@@](C)(O)[C@@H]3C[C@H]12,,
< 4.10,< 4.10,< 4.10,< 4.10,C=C(CO)[C@@H]1CCC(C)=C([C@H](C)CCC(=O)O)C1,,
5.19,5.16,6.15,4.85,C=C1C(=O)O[C@@H]2C[C@H](C)[C@]34O[C@H]3C[C@@](C)(OC(C)=O)[C@@H]4C[C@H]12,,
